From PMC12429584, “5-Hydroxylysine Captures the Suicidally-Inactivated Conformational State of Lysine 5,6-Aminomutase” (International Journal of Molecular Sciences, 2025)

Tests used:
[1] = biological target: T1, Lysine 5,6-aminomutase (5,6-LAM) (Acetoanaerobium sticklandii, UniProt E3PRJ4+E3PRJ5); assay: UV-visible and X-band EPR spectroscopy; type: binding; conditions: PLP and dAdoCbl holoenzyme, 100 mM NH4-EPPS pH 8.5, 37 °C; 2.5 mM (UV-vis) or 30 mM (EPR) 5-HL; active site, external aldimine with PLP; mechanism-based (suicide) inhibitor; stereoisomer mixture
T1 construct: gene kamD
T1 sequence (E3PRJ5 1-519 limits assumed): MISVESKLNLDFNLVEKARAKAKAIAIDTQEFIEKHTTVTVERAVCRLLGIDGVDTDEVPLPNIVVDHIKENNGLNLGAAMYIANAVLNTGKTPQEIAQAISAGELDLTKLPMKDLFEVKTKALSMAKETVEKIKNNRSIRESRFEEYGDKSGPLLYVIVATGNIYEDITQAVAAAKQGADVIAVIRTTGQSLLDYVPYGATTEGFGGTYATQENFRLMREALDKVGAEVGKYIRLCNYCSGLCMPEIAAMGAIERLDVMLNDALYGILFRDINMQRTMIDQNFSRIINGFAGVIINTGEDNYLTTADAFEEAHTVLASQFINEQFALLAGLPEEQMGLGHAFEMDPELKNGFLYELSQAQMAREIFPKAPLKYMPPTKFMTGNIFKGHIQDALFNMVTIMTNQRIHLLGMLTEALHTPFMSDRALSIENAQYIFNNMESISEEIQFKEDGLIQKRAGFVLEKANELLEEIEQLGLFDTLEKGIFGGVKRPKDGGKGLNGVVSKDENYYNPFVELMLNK
T1 sequence (E3PRJ4 1-262): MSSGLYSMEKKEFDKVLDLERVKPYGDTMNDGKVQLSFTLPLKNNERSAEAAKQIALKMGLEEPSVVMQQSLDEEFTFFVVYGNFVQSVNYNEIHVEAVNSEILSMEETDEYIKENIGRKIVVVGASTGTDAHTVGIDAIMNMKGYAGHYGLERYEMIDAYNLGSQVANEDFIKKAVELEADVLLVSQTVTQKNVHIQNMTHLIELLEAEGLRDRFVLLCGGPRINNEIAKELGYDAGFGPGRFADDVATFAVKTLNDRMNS

[2] = biological target: T1, Lysine 5,6-aminomutase (5,6-LAM); conditions: turnover to 2,5-DAH at 1 and 3 min; PLP and dAdoCbl as cofactors

| SMILES | UV-visible and X-band EPR spectroscopy [1] | thin-layer chromatography of product, ninhydrin [2] |
| --- | --- | --- |
| NCC(O)CCC(N)C(=O)O (racemic) [5-HL, 5-hydroxylysine] | These spectral changes demonstrate that 5-HL mimics the initial steps of transaldimination and Co–C bond rupture | – |
| NCCCC[C@@H](N)C(=O)O [D-lysine] | – | bottom spot corresponding to D-lysine and the top spot corresponding to the product |
